Drawing on patent US10953012B2, “Heterocyclic compounds for the inhibition of pask” (BioEnergenix LLC, priority 2011, dated 2021), this text covers IC50 for 26 compounds.

pIC50: −log10 of the molar value.

In one experiment the target is hPASK (full length) (Homo sapiens (Human), UniProt Q96RG2). The experiment can be described thus: PAS Kinase Luminescence Assay (Kinase-Glo), full length. The experiment is classed as biochemical. Here is the method:
(§1) PAS Kinase Luminescence Assay
(§2) One assay for purified hPASK activity utilizes the Kinase-Glo Luminescent Kinase Assay (Promega), which quantifies the amount of ATP remaining in solution following kinase reaction. The assay is carried out in a 96-well plate format and is performed by adding a volume of Kinase-Glo Reagent (Promega, catalog #V3771) equal to the volume of solution in the well of a completed kinase reaction. Kinase-Glo reagent contains Luciferase and its substrate. After addition to a kinase reaction it allows to measure luminescence. The amount of ATP left in solution at the time of Kinase-Glo Plus addition is directly proportional to the luminescence that is measured in each well, and inversely correlated with kinase activity.
(§3) Purified hPASK from insect cells (0.02 μg) is added to a 50 μL reaction mix containing 40 mM HEPES (pH 7.0), 100 mM KCl, 5 mM MgCl2, 1 mM DTT and 1 μg of MBP protein. Inhibitory compounds are then added and the mixture is incubated for 10 min at 25° C. before adding 5 μL of ATP (at desired concentration). The reaction is allowed to proceed at 25° C. for 1 hour before adding 50 μL of Kinase-Glo reagent. The luminescence is measured as soon as 10 minutes after Kinase-Glo reagent is added.
(§4) Results are shown below in Table 1, where NT means not tested.

The target in a further experiment is hPASK (kinase domain) (Homo sapiens (Human), UniProt Q96RG2). The experiment in a line: PAS Kinase Luminescence Assay (Kinase-Glo), kinase domain. In kind it is biochemical. Here is the method: as §1, §2, §3, §4
hPASK (kinase domain), sequence (Q96RG2 999-1251): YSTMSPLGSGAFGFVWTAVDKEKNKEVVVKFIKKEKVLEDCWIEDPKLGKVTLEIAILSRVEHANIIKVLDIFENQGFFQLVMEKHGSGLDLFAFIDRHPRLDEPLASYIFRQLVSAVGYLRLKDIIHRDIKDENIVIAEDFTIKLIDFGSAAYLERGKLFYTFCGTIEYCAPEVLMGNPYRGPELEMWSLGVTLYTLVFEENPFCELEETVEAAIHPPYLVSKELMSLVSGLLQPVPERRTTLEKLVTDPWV
(In general: Kinase-Glo reads ATP consumption through a luciferase reaction.)

Another experiment has as its target CK2a2 (Homo sapiens (Human), UniProt P19784). The experiment can be described thus: Biochemical Assay for CK2 Activity. To be noted: 33P-ATP radiochemical assay; read-out: IC50 CK2 a2. In short, it runs like this: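 GST-tagged full-length human CK2a2 from insect cells (1.2 nM) with 20 μM RRRDDDSDDD peptide, in pH 7.5 HEPES buffer with MgCl2, DTT and 1% DMSO. Reactions started with ³³P-ATP were run for 120 min at room temperature. Substrate phosphorylation was measured by P81 phosphocellulose filter binding and scintillation counting.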

A further experiment concerns the target PASK (UniProt #Q96RG2; residues 879-1323) (Homo sapiens (Human), UniProt Q96RG2). The experiment in a line: PASK ATP Radiochemical Assay. In kind it is biochemical. To be noted: 33P-ATP radiochemical assay; read-out: IC50 Kinase Domain. In short, it runs like this: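 Radiometric kinase assay: GST-tagged PASK (5 nM final) from insect cells with Myelin Basic Protein (20 μM) in HEPES pH 7.5 buffer, 1% DMSO; reaction started with ^33P-ATP, 120 min at room temperature. Substrate phosphorylation captured on P81 paper and read by scintillation counting.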

As usually defined, the pIC50 is −log10 of the IC50, conventionally taken in molar units.

hPASK (full length), sequence (Q96RG2 whole entry): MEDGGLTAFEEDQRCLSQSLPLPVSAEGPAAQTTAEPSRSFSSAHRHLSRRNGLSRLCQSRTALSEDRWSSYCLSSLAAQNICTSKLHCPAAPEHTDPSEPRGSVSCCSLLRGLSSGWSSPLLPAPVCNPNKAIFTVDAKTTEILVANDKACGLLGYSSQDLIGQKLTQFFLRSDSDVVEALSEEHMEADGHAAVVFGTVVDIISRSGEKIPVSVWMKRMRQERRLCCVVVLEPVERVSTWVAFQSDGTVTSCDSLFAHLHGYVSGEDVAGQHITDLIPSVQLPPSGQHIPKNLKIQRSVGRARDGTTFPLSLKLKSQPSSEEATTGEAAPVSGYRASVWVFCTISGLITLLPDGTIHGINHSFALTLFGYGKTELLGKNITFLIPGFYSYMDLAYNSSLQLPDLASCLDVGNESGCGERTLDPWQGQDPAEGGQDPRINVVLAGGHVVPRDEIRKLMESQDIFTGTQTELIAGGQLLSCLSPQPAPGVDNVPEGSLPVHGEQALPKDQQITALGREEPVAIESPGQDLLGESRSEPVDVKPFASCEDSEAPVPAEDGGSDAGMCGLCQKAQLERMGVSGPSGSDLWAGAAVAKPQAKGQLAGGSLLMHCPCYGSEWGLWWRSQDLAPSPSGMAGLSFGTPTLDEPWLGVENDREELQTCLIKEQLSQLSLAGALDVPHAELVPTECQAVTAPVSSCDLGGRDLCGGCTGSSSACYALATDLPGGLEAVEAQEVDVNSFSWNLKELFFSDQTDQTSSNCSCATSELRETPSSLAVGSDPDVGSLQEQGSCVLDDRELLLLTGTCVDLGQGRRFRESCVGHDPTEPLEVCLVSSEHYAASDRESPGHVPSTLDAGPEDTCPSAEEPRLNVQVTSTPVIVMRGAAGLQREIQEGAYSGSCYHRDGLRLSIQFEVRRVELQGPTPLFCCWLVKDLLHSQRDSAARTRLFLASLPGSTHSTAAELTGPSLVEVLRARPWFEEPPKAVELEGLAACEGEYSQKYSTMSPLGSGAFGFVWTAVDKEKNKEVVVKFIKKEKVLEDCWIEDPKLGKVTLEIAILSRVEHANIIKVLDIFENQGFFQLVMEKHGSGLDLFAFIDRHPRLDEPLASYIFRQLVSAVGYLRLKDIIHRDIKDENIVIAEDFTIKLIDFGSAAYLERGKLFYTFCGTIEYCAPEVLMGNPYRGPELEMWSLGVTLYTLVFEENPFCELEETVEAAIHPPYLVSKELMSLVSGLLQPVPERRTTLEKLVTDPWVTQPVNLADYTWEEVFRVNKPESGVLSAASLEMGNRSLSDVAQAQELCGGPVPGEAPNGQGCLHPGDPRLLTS
PASK, sequence (Q96RG2 879-1323): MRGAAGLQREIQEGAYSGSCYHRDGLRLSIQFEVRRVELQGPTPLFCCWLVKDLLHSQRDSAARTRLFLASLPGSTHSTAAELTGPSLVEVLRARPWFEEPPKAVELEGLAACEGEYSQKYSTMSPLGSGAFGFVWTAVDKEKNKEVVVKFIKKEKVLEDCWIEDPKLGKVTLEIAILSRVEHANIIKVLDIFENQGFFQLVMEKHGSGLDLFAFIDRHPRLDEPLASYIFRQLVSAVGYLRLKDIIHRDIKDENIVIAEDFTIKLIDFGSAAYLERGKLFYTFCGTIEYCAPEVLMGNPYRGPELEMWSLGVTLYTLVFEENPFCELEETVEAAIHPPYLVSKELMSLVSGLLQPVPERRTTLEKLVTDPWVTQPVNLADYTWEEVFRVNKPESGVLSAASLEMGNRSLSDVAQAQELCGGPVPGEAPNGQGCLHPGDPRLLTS
CK2a2, sequence (P19784 whole entry): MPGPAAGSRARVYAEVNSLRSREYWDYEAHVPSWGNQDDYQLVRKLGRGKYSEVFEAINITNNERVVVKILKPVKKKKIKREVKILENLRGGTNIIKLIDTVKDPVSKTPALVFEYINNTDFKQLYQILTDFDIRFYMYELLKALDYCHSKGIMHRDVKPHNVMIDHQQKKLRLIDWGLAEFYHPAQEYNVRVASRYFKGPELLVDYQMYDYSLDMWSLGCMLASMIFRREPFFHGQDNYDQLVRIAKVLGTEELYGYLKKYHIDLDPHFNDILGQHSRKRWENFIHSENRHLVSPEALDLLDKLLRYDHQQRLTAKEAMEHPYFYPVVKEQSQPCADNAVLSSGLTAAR

On to `Cc1nn2c(=O)cc(-c3ccc([N+](=O)[O-])cc3)[nH]c2c1-c1ccc(Cl)cc1` [Example 1, 3-(4-Chloro-phenyl)-2-methyl-5-(4-nitro-phenyl)-4H-pyrazolo[1,5-a]pyrimidin-7-one], for which the pIC50 against hPASK (full length) and on hPASK (kinase domain) was at least 5.00 throughout.
Turning to `Cc1cc(=O)n2nc(-c3ccc(Cl)cc3)cc2[nH]1` [Example 2, 2-(4-Chloro-phenyl)-5-methyl-4H-pyrazolo[1,5-a]pyrimidin-7-one], the pIC50 against hPASK (full length) is at least 5.00; at hPASK (kinase domain) it was at most 5.00.
Taken in the same sequence, the figures for `Cc1[nH]c2c(-c3ccc(Cl)cc3)cnn2c(=O)c1Cc1ccccc1` [Example 3, 6-Benzyl-3-(4-chloro-phenyl)-5-methyl-4H-pyrazolo[1,5-a]pyrimidin-7-one] were at least 5.00 and at least 5.00.
As to `COc1ccc(-c2c(Cc3ccccc3)nn3c(=O)cc(-c4ccccc4)[nH]c23)cc1` [Example 5, 2-Benzyl-3-(4-methoxy-phenyl)-5-phenyl-4H-pyrazolo[1,5-a]pyrimidin-7-one], the pIC50 is at most 5.00 against hPASK (full length) and at least 5.00 against hPASK (kinase domain).
As for `COc1ccc(-c2c(C)nn3c(=O)cc(-c4ccccc4)[nH]c23)cc1` [Example 6, 3-(4-Methoxy-phenyl)-2-methyl-5-phenyl-4H-pyrazolo[1,5-a]pyrimidin-7-one], the pIC50 is at most 5.00 on hPASK (full length) and at least 5.00 against hPASK (kinase domain).
Taken in the same sequence, the figures for `O=c1cc(-c2ccccc2)[nH]c2c(-c3ccccc3)c(Cc3ccccc3)nn12` [Example 7, 2-Benzyl-3,5-diphenyl-4H-pyrazolo[1,5-a]pyrimidin-7-one] were at most 5.00 and at least 5.00.
Taken in the same sequence, the figures for `Cc1nn2c(=O)cc(-c3ccccc3)[nH]c2c1-c1ccc(Cl)cc1` [Example 8, 3-(4-Chloro-phenyl)-2-methyl-5-phenyl-4H-pyrazolo[1,5-a]pyrimidin-7-one] were at least 5.00 and at least 5.00.
In the case of `O=c1cc(-c2ccc([N+](=O)[O-])cc2)[nH]c2c(-c3ccc(Cl)cc3)c(Cc3ccccc3)nn12` [Example 9, 2-Benzyl-3-(4-chloro-phenyl)-5-(4-nitro-phenyl)-4H-pyrazolo[1,5-a]pyrimidin-7-one], the pIC50 against hPASK (full length) and against hPASK (kinase domain) was at least 5.00 in each case.
With `O=c1cc(-c2ccccc2)[nH]c2c(-c3ccc(Cl)cc3)c(Cc3ccccc3)nn12` [Example 10, 2-Benzyl-3-(4-chloro-phenyl)-5-phenyl-4H-pyrazolo[1,5-a]pyrimidin-7-one], the pIC50 on hPASK (full length) and on hPASK (kinase domain) was at most 5.00 throughout.
As for `O=c1cc(-c2ccccc2)[nH]c2c(-c3cccc4ccccc34)c(Cc3ccccc3)nn12` [Example 11, 2-Benzyl-3-naphthalen-1-yl-5-phenyl-4H-pyrazolo[1,5-a]pyrimidin-7-one], the pIC50 at hPASK (full length) and against hPASK (kinase domain) was at most 5.00 each time.
As for `COc1ccc(Cc2nn3c(=O)cc(-c4ccccc4)[nH]c3c2-c2ccccc2)cc1` [Example 12, 2-(4-Methoxy-benzyl)-3,5-diphenyl-4H-pyrazolo[1,5-a]pyrimidin-7-one], the pIC50 on hPASK (full length) and on hPASK (kinase domain) was at most 5.00 throughout.
On to `Cc1nn2c(=O)c(C#N)c(-c3ccccc3)[nH]c2c1-c1ccccc1` [Example 13, 2-Methyl-7-oxo-3,5-diphenyl-4,7-dihydro-pyrazolo[1,5-a]pyrimidine-6-carbonitrile], for which the negative logarithm of the IC50 (pIC50) on hPASK (full length) was at most 5.00; at hPASK (kinase domain), at least 5.00.
As to `COc1ccc(-c2cc(=O)n3nc(C)c(-c4ccccc4)c3[nH]2)cc1` [Example 14, 5-(4-Methoxy-phenyl)-2-methyl-3-phenyl-4H-pyrazolo[1,5-a]pyrimidin-7-one], the negative-log IC50 (pIC50) against hPASK (full length) and against hPASK (kinase domain) was at least 5.00 throughout.
Turning to `Cc1nn2c(=O)cc(-c3ccccc3)[nH]c2c1-c1ccc(F)cc1` [Example 15, 3-(4-Fluoro-phenyl)-2-methyl-5-phenyl-4H-pyrazolo[1,5-a]pyrimidin-7-one], the pIC50 against hPASK (full length) and against hPASK (kinase domain) was at most 5.00 each time.
Regarding `COc1ccccc1-c1cc(=O)n2nc(C)c(-c3ccccc3)c2[nH]1` [Example 16, 5-(2-Methoxy-phenyl)-2-methyl-3-phenyl-4H-pyrazolo[1,5-a]pyrimidin-7-one], the pIC50 against hPASK (full length) and against hPASK (kinase domain) was at least 5.00 throughout.
With `Cc1nn2c(=O)cc(-c3ccc(Cl)cc3)[nH]c2c1-c1ccccc1` [Example 17, 5-(4-Chloro-phenyl)-2-methyl-3-phenyl-4H-pyrazolo[1,5-a]pyrimidin-7-one], the pIC50 against hPASK (full length) and against hPASK (kinase domain) was at least 5.00 each time.
For `CCCc1cc(=O)n2nc(Cc3ccccc3)c(-c3ccc(Cl)cc3)c2[nH]1` [Example 18, 2-Benzyl-3-(4-chloro-phenyl)-5-propyl-4H-pyrazolo[1,5-a]pyrimidin-7-one], the pIC50 on hPASK (full length) and at hPASK (kinase domain) was at most 5.00 each time.
In the case of `COCc1cc(=O)n2nc(Cc3ccccc3)c(-c3ccc(OC)cc3)c2[nH]1` [Example 19, 2-Benzyl-5-methoxymethyl-3-(4-methoxy-phenyl)-4H-pyrazolo[1,5-a]pyrimidin-7-one], the negative-log IC50 (pIC50) on hPASK (full length) and at hPASK (kinase domain) was at most 5.00 throughout.
Regarding `O=c1cc(Cc2ccccc2)[nH]c2c(-c3ccccc3)c(Cc3ccccc3)nn12` [Example 21, 2,5-Dibenzyl-3-phenyl-4H-pyrazolo[1,5-a]pyrimidin-7-one], the pIC50 at hPASK (full length) and against hPASK (kinase domain) was at most 5.00 each time.
For the compound `CCCc1cc(=O)n2nc(C)c(-c3ccc(Cl)cc3)c2[nH]1` [Example 22, 3-(4-Chloro-phenyl)-2-methyl-5-propyl-4H-pyrazolo[1,5-a]pyrimidin-7-one], the pIC50 against hPASK (full length) and against hPASK (kinase domain) was at most 5.00 throughout.
Take `COc1ccc(-c2c(C)nn3c(=O)cc(Cc4ccccc4)[nH]c23)cc1` [Example 23, 5-Benzyl-3-(4-methoxy-phenyl)-2-methyl-4H-pyrazolo[1,5-a]pyrimidin-7-one]: the pIC50 against hPASK (full length) and against hPASK (kinase domain) was at most 5.00 in each case.
Regarding `COCc1cc(=O)n2nc(Cc3ccccc3)c(-c3ccc(Cl)cc3)c2[nH]1` [Example 24, 2-Benzyl-3-(4-chloro-phenyl)-5-methoxymethyl-4H-pyrazolo[1,5-a]pyrimidin-7-one], the negative logarithm of the IC50 (pIC50) at hPASK (full length) and on hPASK (kinase domain) was at most 5.00 each time.
As for `O=c1c2c([nH]c3c(-c4ccc(Cl)cc4)c(Cc4ccccc4)nn13)CCC2` [Example 26, 2-Benzyl-3-(4-chlorophenyl)-6,7-dihydro-4H-cyclopenta[d]pyrazolo[1,5-a]pyrimidin-8(5H)-one], the pIC50 at hPASK (full length) and against hPASK (kinase domain) was at most 5.00 throughout.
As to `Cc1nn2c(=O)c3c([nH]c2c1-c1ccc(Cl)cc1)CCC3` [Example 27, 3-(4-Chlorophenyl)-2-methyl-6,7-dihydro-4H-cyclopenta[d]pyrazolo[1,5-a]pyrimidin-8(5H)-one], the negative-log IC50 (pIC50) at hPASK (full length) and against hPASK (kinase domain) was at most 5.00 in each case.
Take `Cc1cc(=O)n2nc(C)c(-c3ccc(Cl)cc3)c2[nH]1` [Example 28, 3-(4-Chloro-phenyl)-2,5-dimethyl-4H-pyrazolo[1,5-a]pyrimidin-7-one]: the pIC50 against hPASK (full length) and on hPASK (kinase domain) was at most 5.00 each time.
Turning to `Cc1nn2c(=O)cc(-c3ccc4cc[nH]c4c3)[nH]c2c1Cc1ccccc1` [Example 74, 3-Benzyl-5-(1H-indol-6-yl)-2-methylpyrazolo[1,5-a]pyrimidin-7(4H)-one], the figures for the pIC50 at CK2a2, on PASK and at hPASK (kinase domain) were at most 5.00, at least 5.00 and at least 5.00, respectively.
